Laboratory results reported in US20250170239A1, “CELLULAR REPROGRAMMING BY TARGETING THE GOLGI APPARATUS” (MUSC Foundation for Research Development, priority 2023, published 2025).

What was measured:
[1] = system: Prdx4-Golgi colocalization; details: 50 mM H2O2 24 hrs
Protocol: (§1) (FIG. 22A) Pmel T cells were activated for 3 days before treatment with vehicle or 50 mM H2O2 for 6 hrs. Prdx4-Golgi colocalization was assessed by PLA using mouse anti-Giantin and rabbit anti-Prdx4 antibodies. (FIG. 22B) Activated Pmel T cells treated with vehicle or 50 mM H2O2 for 6 hrs or 24 hrs with Monensin (1 mM). PLA assay was performed using anti-Giantin and anti-Prdx4 antibodies. (FIG. 22C) Experimental design using Prdx4-targeted siRNA to silence expression of Prdx4 in Pmel T cells. (FIG. 22D) GM130 expression assessed under control versus Monensin (1 μM) conditions in T cells treated with control-siRNA or Prdx4-siRNA. (FIG. 22E) GM130 expression assessed under control versus 50 mM H2O2 conditions in T cells treated with control-siRNA or Prdx4-siRNA+/−0.5 mM GYY4137. (FIG. 22F) Protein translation assessed in Pmel T cells activated+/−GYY4137 and treated with control-siRNA or Prdx4-siRNA. (FIG. 22G) GM130 expression in Pmel T cells treated with vehicle, GYY4137, or Catalase (10 μg/mL). (FIGS. 22H and 22I) Site directed mutagenesis performed to mutate cysteine-54 of the Prdx4 gene. Prdx4-targeted shRNA was used to knock down expression of Prdx4 in Jurkat T cells, followed by transfection with plasmid containing wildtype or mutated Prdx4. (FIG. 22I) GM130 expression assessed after treatment with 50 mM H2O2+/−GYY4137. […]

Jurkat cells = details: 50 mM H2O2 +/− GYY4137; wildtype vs C51A Prdx4
Protocol: as §1

## C1COCCN1.COc1ccc(P(=S)(S)N2CCOCC2)cc1 (centres unmarked) [GYY4137]
[1]
  loss of Prdx4 localization within the Golgi under prolonged oxidative stress: loss of colocalization was mitigated
Jurkat cells
  protective effect on H2O2-induced Golgi stress (GM130): only observed in Jurkat cells expressing wildtype Prdx4
